Reference: PMC5617480 (Oncotarget, 2017)
Where two headings read alike, the source gives them in different places.

What was measured:
BEL-7402 cells = experiment: Cytotoxicity assay (MTT assay); type: cell-based, human; conditions: for Inhibitory rates (%): BEL-7402, 20 μM
Experimental: (§1) To evaluate the cytotoxicity of chiral platinum(II) complexes, HeLa, BEL-7402, MGC80-3, BEL-7404, A549, Hep-G2 and HL-7702 cells (normal cells) were treated with varying concentrations of complexes 1–6 and cisplatin (positive control, cisplatin was dissolved at a concentration of 1.0 mM in 0.154 M NaCl) for 24 h and 48 h. The cell viability of each experimental group was examined by MTT assays. […] [61, 62]. […] Therefore, complex 6 (10 μM) was selected for cell apoptosis analysis by flow-cytometry, RT-PCR, caspase-3/9 activation assays, western blot and transfection assays in BEL-7404 cells for 24 h. In addition, this observed difference in in vitro cytotoxicity between the three complexes 4–6 could be due to the influence of the chirality of the FOA ligand [68]. […]
(§2) Materials 100 U/mL penicillin and 100 μg/mL streptomycin in 25 cm2 culture flasks at 37 °C humidified atmosphere with Tris, RNase A, and propidium iodide (PI) were 5% CO2. All cells to be tested in the following assays have purchased from Sigma. The antibody of mutp53, a passage number of 3-6. […]
(§3) were purchased from Abcam. Unless otherwise stated, BEL-7404, A549, and Hep-G2 cancer-cell lines and HL-spectroscopic titration experiments were carried out in 7702 normal cells) per well were seeded in triplicate in TBS (10 mM pH7.35 Tris-HCl, containing 100 mM KCl). 96-well plates and incubated for 24 h at 37 °C and 5.0% The total RNA isolation kit and the two-step RT-PCR kit CO2/95.0% air. Then graded amounts of compound were purchased from TIANGEN. DNA oligomers (highly added to the wells in 10.0 μL of FBS free culture medium polymerized stored at 4 °C; long-term storage at −20 °C) and the plates were incubated in a 5% CO2 humidified are listed in Supplementary Table 1 and were obtained from atmosphere for 24 h and 48 h. Six replica wells were used Shanghai Sangon Biological Engineering Technology & as controls. Each the cells were grew for 12.0 h before Services (Shanghai, China). All tumor cell lines (HeLa, treatment to reach 70.0% confluency and 20.0 μL of tested BEL-7402, MGC80-3, BEL-7404, A549, Hep-G2 cancer- various concentrations of compounds were added to each cell lines and normal liver cell line HL-7702) were obtained well. The final concentration of the tested complexes from the Shanghai Institute for Biological Science (China). or compounds were kept at 1.25, 2.5, 5, 10, 20 μM, Stock solutions of all the compounds (2.0 mM) were made respectively. After 24 h or 48 h of culture, 0.1 mg of in DMSO, and further dilutions to working concentrations MTT (in 20 μL of PBS) was added to each well, and cells were made with corresponding buffer. were incubated at 37 °C for 6 h. The formed formazan crystals were then dissolved in 100 μL of DMSO and the Instrumentation absorbance was read by enzyme labeling instrument with Infrared spectra were obtained on a Perkine Elmer 490/630 nm double wavelength measurement. The final FT-IR Spectrometer. Elemental analyses (C, H, N) IC50 values were calculated by the Bliss method (n = 5). were carried out on a Perkin Elmer Series II CHNS/O All tests were repeated in at least three independent trials. […]
(§4) 10.0 min. The cell pellet obtained was dissolved in 1.0 M
(§5) The region between 200 and 400 nm was scanned for each NaOH (1.0 mL) and diluted with 2.0% (v/v) HNO3 (5.0 sample. MTT assay was performed on M1000 microplate mL) for determining whole cell Pt content. Another set reader (Tecan Trading Co. Ltd, Shanghai, China). Cell was treated similarly, nuclear proteins, nuclear fraction, cycle and apoptosis analysis was recorded on FACS Aria cytoplasmic protein, membrane proteins and other fraction II Flow Cytometer (BD Biocsiences, San Jose, USA). were isolated as described by Chen and Schreiber et al. And the each final solution was made up to 5.0 mL
(§6) Cytotoxicity assay (MTT assay) using 2.0% (v/v) HNO3. The amount of Pt taken up by the cells was determined by ICP-MS. The instrument was […]

BEL-7404 cells = experiment: Cytotoxicity assay (MTT assay); type: cell-based, human; conditions: for Inhibitory rates (%): BEL-7404, 20 μM
Experimental: as §1, §2, §3, §4, §5, §6

HeLa cells = experiment: Cytotoxicity assay (MTT assay); type: cell-based, human; conditions: for Inhibitory rates (%): 20 μM
Experimental: as §1, §2, §3, §4, §5, §6

A549 cells = experiment: Cytotoxicity assay (MTT assay); type: cell-based, human; conditions: for Inhibitory rates (%): A549, 20 μM
Experimental: as §1, §2, §3, §4, §5, §6

MGC80-3 cells [1] = experiment: Cytotoxicity assay (MTT assay); type: cell-based, human; conditions: for Inhibitory rates (%): MGC80-3, 20 μM
Experimental: as §1, §2, §3, §4, §5, §6

Hep-G2 cells = experiment: Cytotoxicity assay (MTT assay); type: cell-based, human; conditions: for Inhibitory rates (%): Hep-G2, 20 μM
Experimental: as §1, §2, §3, §4, §5, §6

HL-7702 normal cells = experiment: Cytotoxicity assay (MTT assay); type: cell-based, human; conditions: for Inhibitory rates (%): HL-7702, 20 μM
Experimental: To evaluate the cytotoxicity of chiral platinum(II) complexes, HeLa, BEL-7402, MGC80-3, BEL-7404, A549, Hep-G2 and HL-7702 cells (normal cells) were treated with varying concentrations of complexes 1–6 and cisplatin (positive control, cisplatin was dissolved at a concentration of 1.0 mM in 0.154 M NaCl) for 24 h and 48 h. The cell viability of each experimental group was examined by MTT assays. […] [61, 62].
as §2, §3

[2] = test system: F32T+H20M (DNA, duplex) CCGCATCTCTACATTCAAGAACTGGCATGCGG/GCCAGTTCTTGAATGTAGAG; experiment: FRET melting; conditions: 100 mM K+; 10 mM Tris-HCl, pH 7.35; 2.0 μM compound, 1.0 μM DNA
MGC80-3 cells [3] = test system: MGC80-3 cells; design: method as in earlier work; conditions: MGC80-3, 48 h; ref [1]; cited from earlier work

Compound	Inhibitory rates (%) (BEL-7402 cells; 24 h)	Inhibitory rates (%) (BEL-7402 cells; 48 h)	IC50 (BEL-7402 cells; BEL-7402, 24 h) [µM]	Inhibitory rates (%) (BEL-7404 cells; 24 h)	Inhibitory rates (%) (BEL-7404 cells; 48 h)	IC50 (BEL-7404 cells; BEL-7404, 24 h) [µM]	Inhibitory rates (%) (HeLa cells; 24 h)	Inhibitory rates (%) (HeLa cells; 48 h)	IC50 (HeLa cells; 24 h) [µM]	Inhibitory rates (%) (A549 cells; 24 h)	Inhibitory rates (%) (A549 cells; 48 h)	IC50 (A549 cells; A549, 24 h) [µM]	Inhibitory rates (%) (MGC80-3 cells [1]; 24 h)	Inhibitory rates (%) (MGC80-3 cells [1]; 48 h)	IC50 (MGC80-3 cells [1]; MGC80-3, 24 h) [µM]	Inhibitory rates (%) (Hep-G2 cells; 24 h)	Inhibitory rates (%) (Hep-G2 cells; 48 h)	IC50 (Hep-G2 cells; Hep-G2, 24 h) [µM]	selectivity index factor, IC50 (normal HL-7702 cells)/IC50 (BEL-7404 tumor cells) (HL-7702 normal cells; 24 h)	Inhibitory rates (%) (HL-7702 normal cells; 24 h)	further results
cis-[PtCl2(R/S-(±)-FOA)] [complex 4]	41.2 ± 0.6	48.6 ± 1.3	32.5 ± 0.5	67.3 ± 1.3	80.0 ± 4.3	12.5 ± 1.1	18.5 ± 0.7	24.1 ± 2.1	90.5 ± 0.7	57.6 ± 0.6	77.8 ± 0.1	18.6 ± 0.5	22.0 ± 1.9	24.9 ± 1.4	80.6 ± 2	20.8 ± 0.3	27.6 ± 1.1	84.6 ± 0.4	6.8	28.3 ± 1.7	IC50 (BEL-7402 cells; BEL-7402, 48 h): 20.7 ± 0.9 µM; IC50 (BEL-7404 cells; BEL-7404, 48 h): 8.7 ± 0.1 µM; IC50 (HeLa cells; 48 h): 38.1 ± 1.5 µM; IC50 (A549 cells; A549, 48 h): 9.1 ± 0.6 µM; IC50 (MGC80-3 cells [1]; MGC80-3, 48 h): 32.1 ± 1.8 µM; IC50 (Hep-G2 cells; Hep-G2, 48 h): 29.1 ± 0.8 µM; selectivity index factor, IC50 (normal HL-7702 cells)/IC50 (BEL-7404 tumor cells) (HL-7702 normal cells; 48 h): 6.7; Inhibitory rates (%) (HL-7702 normal cells; 48 h): 31.6 ± 2.4%; IC50 (HL-7702 normal cells; HL-7702, 24 h): 85.4 ± 1.5 µM; IC50 (HL-7702 normal cells; HL-7702, 48 h): 58.5 ± 5.5 µM
N.N.[Cl][Pt][Cl] [cisplatin, reference compound]	55.4 ± 0.9	65.7 ± 1.2	17.5 ± 0.6	45.5 ± 2.1	54.2 ± 1.4	24.8 ± 1.8	64.3 ± 1.4	80.6 ± 0.9	15.8 ± 1.2	48.6 ± 0.4	51.1 ± 3.4	21.3 ± 0.7	61.5 ± 1.2	71.4 ± 1.5	16.3 ± 1.3	51.6 ± 0.6	60.6 ± 1.0	19.5 ± 0.5	0.8	59.6 ± 1.2	IC50 (BEL-7402 cells; BEL-7402, 48 h): 13.5 ± 0.9 µM; IC50 (BEL-7404 cells; BEL-7404, 48 h): 15.8 ± 0.7 µM; IC50 (HeLa cells; 48 h): 5.8 ± 0.9 µM; IC50 (A549 cells; A549, 48 h): 17 ± 2.3 µM; IC50 (MGC80-3 cells [1]; MGC80-3, 48 h): 5.4 ± 0.5 µM; IC50 (Hep-G2 cells; Hep-G2, 48 h): 9.5 ± 0.4 µM; selectivity index factor, IC50 (normal HL-7702 cells)/IC50 (BEL-7404 tumor cells) (HL-7702 normal cells; 48 h): 1.0; Inhibitory rates (%) (HL-7702 normal cells; 48 h): 73.6 ± 2.3%; IC50 (HL-7702 normal cells; HL-7702, 24 h): 19.8 ± 1.3 µM; IC50 (HL-7702 normal cells; HL-7702, 48 h): 15.6 ± 0.3 µM
cis-[PtCl2(S-(–)-FOA)] [complex 6]	50.5 ± 1.6	58.4 ± 2.1	20.6 ± 1.5	70.9 ± 0.7	81.3 ± 0.4	10.1 ± 0.6	21.1 ± 0.9	25.1 ± 1.4	78.2 ± 0.9	65.3 ± 1.3	84.7 ± 2.2	15.3 ± 1.2	25.1 ± 0.5	26.5 ± 1.1	72.8 ± 0.4	30.2 ± 1.6	39.3 ± 2.2	50.1 ± 1.8	11.8	20.7 ± 1.6	IC50 (BEL-7402 cells; BEL-7402, 48 h): 15.3 ± 2.2 µM; IC50 (BEL-7404 cells; BEL-7404, 48 h): 7.9 ± 0.3 µM; IC50 (HeLa cells; 48 h): 31.8 ± 0.7 µM; IC50 (A549 cells; A549, 48 h): 8.2 ± 0.5 µM; IC50 (MGC80-3 cells [1]; MGC80-3, 48 h): 31.5 ± 1.7 µM; IC50 (Hep-G2 cells; Hep-G2, 48 h): 17.7 ± 1.2 µM; selectivity index factor, IC50 (normal HL-7702 cells)/IC50 (BEL-7404 tumor cells) (HL-7702 normal cells; 48 h): 10.7; Inhibitory rates (%) (HL-7702 normal cells; 48 h): 33.9 ± 2.2%; IC50 (HL-7702 normal cells; HL-7702, 24 h): 119 ± 1.5 µM; IC50 (HL-7702 normal cells; HL-7702, 48 h): 84.2 ± 1.2 µM
O=C(NC[C@H](O)CO)c1cnc2c3c(cccc13)-c1ccccc1C2=O.[Cl-].[Cl-].[Pt+2] [ligand 3, S-(–)-FOA]	35.1 ± 1.3	41.8 ± 2.5	45.8 ± 1.4	42.8 ± 0.4	64.8 ± 1.3	30.1 ± 0.7	31.2 ± 0.4	36.6 ± 1.5	43.2 ± 0.4	37.2 ± 0.8	51.2 ± 3.4	36.4 ± 1	24.2 ± 0.5	28.2 ± 1.4	78.2 ± 0.7	24.9 ± 0.8	29.3 ± 0.9	70.1 ± 0.8	3.5	23.4 ± 0.9	ΔTm [2]: 0.78 °C; IC50 (MGC80-3 cells [3]): 35.7 ± 2.9 µM; Inhibitory rates (%) (HL-7702 normal cells; 48 h): 27.5 ± 1.2%; IC50 (HL-7702 normal cells; HL-7702, 24 h): 105.3 ± 1 µM
cis-[PtCl2(R-(+)-FOA)] [complex 5]	35.6 ± 2.1	42.1 ± 0.7	42.3 ± 1.9	46.1 ± 1.1	55.9 ± 2.7	22.5 ± 1.3	8.6 ± 1.5	9.9 ± 0.7	168.6 ± 1.4	28.9 ± 0.5	35.9 ± 2.6	56.3 ± 0.7	11.3 ± 0.4	19.8 ± 1.8	135.1 ± 0.5	16.5 ± 1.4	23.3 ± 0.5	93.4 ± 1.2	3.6	30.6 ± 2.1	IC50 (BEL-7402 cells; BEL-7402, 48 h): 38.4 ± 1.4 µM; IC50 (BEL-7404 cells; BEL-7404, 48 h): 14.5 ± 0.5 µM; IC50 (HeLa cells; 48 h): 64.2 ± 0.2 µM; IC50 (A549 cells; A549, 48 h): 17.2 ± 0.1 µM; IC50 (MGC80-3 cells [1]; MGC80-3, 48 h): 37.4 ± 1.2 µM; IC50 (Hep-G2 cells; Hep-G2, 48 h): 35.7 ± 1.5 µM; selectivity index factor, IC50 (normal HL-7702 cells)/IC50 (BEL-7404 tumor cells) (HL-7702 normal cells; 48 h): 3.9; Inhibitory rates (%) (HL-7702 normal cells; 48 h): 37.5 ± 5.3%; IC50 (HL-7702 normal cells; HL-7702, 24 h): 80.1 ± 1.8 µM; IC50 (HL-7702 normal cells; HL-7702, 48 h): 55.8 ± 3.1 µM
